Common to all, as to type: cell-based
One experiment concerns the target T1, alpha2A receptor (Homo sapiens, UniProt P08913).
T1 construct: expressed in transfected cells; host or cells: NIH-3T3 cells
T1 sequence (P08913 1-465): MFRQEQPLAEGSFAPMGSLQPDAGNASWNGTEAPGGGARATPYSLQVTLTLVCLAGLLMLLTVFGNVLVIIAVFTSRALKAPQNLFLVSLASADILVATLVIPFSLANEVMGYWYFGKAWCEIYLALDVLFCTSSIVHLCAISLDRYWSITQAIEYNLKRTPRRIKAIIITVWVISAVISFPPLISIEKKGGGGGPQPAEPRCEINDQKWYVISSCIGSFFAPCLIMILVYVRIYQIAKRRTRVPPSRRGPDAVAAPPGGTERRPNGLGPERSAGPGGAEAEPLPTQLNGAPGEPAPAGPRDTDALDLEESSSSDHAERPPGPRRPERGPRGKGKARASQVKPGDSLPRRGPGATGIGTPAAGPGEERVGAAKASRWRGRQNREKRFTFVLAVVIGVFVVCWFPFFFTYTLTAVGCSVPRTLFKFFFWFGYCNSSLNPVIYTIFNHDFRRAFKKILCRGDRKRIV
As to the kind of experiment: RSAT assay, alpha2A receptor. Particulars: for Alpha 2A intrinsic activity (efficacy): ratio of maximal effect to that of standard full agonist brimonidine (UK14304), value in parentheses; for EC50: transfected NIH-3T3 cells with Gq/i5, ND = not determinable at concentrations less than 10 micromolar, read-out: Alpha 2A potency (EC50). The procedure: (§1) Receptor Selection and Amplification Technology (RSAT) Assay
(§2) The RSAT assay measures a receptor-mediated loss of contact inhibition that results in selective proliferation of receptor-containing cells in a mixed population of confluent cells. The increase in cell number is assessed with an appropriate transfected marker gene such as β-galactosidase, the activity of which can be easily measured in a 96-well format. Receptors that activate the G protein, Gq, elicit this response. Alpha2 receptors, which normally couple to Gi, activate the RSAT response when coexpressed with a hybrid Gq protein that has a Gi receptor recognition domain, called Gq/i5.
(§3) NIH-3T3 cells are plated at a density of 2×10^6 cells in 15 cm dishes and maintained in Dulbecco's modified Eagle's medium supplemented with 10% calf serum. One day later, cells are cotransfected by calcium phosphate precipitation with mammalian expression plasmids encoding p-SV-β-galactosidase (5-10 μg), receptor (1-2 μg) and G protein (1-2 μg). 40 μg salmon sperm DNA may also be included in the transfection mixture. Fresh media is added on the following day and 1-2 days later, cells are harvested and frozen in 50 assay aliquots. Cells are thawed and 100 μl added to 100 μl aliquots of various concentrations of drugs in triplicate in 96-well dishes. Incubations continue 72-96 hr at 37° C. After washing with phosphate-buffered saline, β-galactosidase enzyme activity is determined by adding 200 μl of the chromogenic substrate (consisting of 3.5 mM o-nitrophenyl-β-D-galactopyranoside and 0.5% nonidet P-40 in phosphate buffered saline), incubating overnight at 30° C. and measuring optical density at 420 nm. The absorbance is a measure of enzyme activity, which depends on cell number and reflects a receptor-mediated cell proliferation. The efficacy or intrinsic activity is calculated as a ratio of the maximal effect of the drug to the maximal effect of a standard full agonist for each receptor subtype. Brimonidine, also called UK14304, the chemical structure of which is shown below, is used as the standard agonist for the alpha2A, alpha2B and alpha2C receptors. The EC50 is the concentration at which the drug effect is half of its maximal effect.
(§4) The results of the RSAT assay with several exemplary compounds of the invention are disclosed in Table 1 above together with the chemical formulas of these exemplary compounds. EC50 values are nanomolar. ND stands for “not determinable” at concentrations less than 10 micromolar. IA stands for “intrinsic activity.”

In a further experiment the target is T2, alpha2B receptor (Homo sapiens, UniProt P18089).
T2 construct: expressed in transfected cells; host or cells: NIH-3T3 cells
T2 sequence (P18089 1-450): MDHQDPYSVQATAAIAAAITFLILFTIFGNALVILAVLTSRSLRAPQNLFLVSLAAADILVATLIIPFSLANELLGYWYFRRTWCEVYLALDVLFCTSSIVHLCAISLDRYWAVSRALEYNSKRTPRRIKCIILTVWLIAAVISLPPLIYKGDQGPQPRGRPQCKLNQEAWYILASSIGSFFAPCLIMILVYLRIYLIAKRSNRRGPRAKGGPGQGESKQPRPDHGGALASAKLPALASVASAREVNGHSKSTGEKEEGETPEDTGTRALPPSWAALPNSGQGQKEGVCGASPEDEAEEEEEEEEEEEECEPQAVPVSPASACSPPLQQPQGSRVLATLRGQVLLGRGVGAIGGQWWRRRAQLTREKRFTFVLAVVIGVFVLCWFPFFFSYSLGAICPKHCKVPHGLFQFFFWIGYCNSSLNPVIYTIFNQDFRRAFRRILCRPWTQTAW
As to the kind of experiment: RSAT assay, alpha2B receptor. The note with it: for Alpha 2B intrinsic activity (efficacy): ratio of maximal effect to that of standard full agonist brimonidine (UK14304), value in parentheses; for EC50: transfected NIH-3T3 cells with Gq/i5, ND = not determinable at concentrations less than 10 micromolar, read-out: Alpha 2B potency (EC50). The procedure: as §1, §2, §3, §4

The target in a further experiment is T3, alpha2C receptor (Homo sapiens, UniProt P18825).
T3 construct: expressed in transfected cells; host or cells: NIH-3T3 cells
T3 sequence (P18825 1-462): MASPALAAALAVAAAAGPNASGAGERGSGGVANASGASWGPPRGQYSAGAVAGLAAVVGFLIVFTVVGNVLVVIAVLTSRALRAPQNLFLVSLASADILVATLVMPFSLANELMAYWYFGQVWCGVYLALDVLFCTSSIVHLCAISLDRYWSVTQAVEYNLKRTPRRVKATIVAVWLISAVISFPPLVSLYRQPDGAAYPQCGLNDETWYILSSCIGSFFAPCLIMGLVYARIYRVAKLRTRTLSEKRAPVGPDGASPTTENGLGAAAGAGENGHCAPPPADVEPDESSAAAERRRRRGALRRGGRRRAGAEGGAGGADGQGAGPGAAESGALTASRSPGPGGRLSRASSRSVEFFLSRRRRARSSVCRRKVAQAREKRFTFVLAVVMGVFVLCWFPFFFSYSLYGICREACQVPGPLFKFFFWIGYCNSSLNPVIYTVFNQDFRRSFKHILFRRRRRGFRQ
As to the kind of experiment: RSAT assay, alpha2C receptor. Particulars: for Alpha 2C intrinsic activity (efficacy): ratio of maximal effect to that of standard full agonist brimonidine (UK14304), value in parentheses; for EC50: transfected NIH-3T3 cells with Gq/i5, ND = not determinable at concentrations less than 10 micromolar, read-out: Alpha 2C potency (EC50). As for the experimental part: as §1, §2, §3, §4

Consider 7 compounds from patent US8383646B2, “Therapeutic ((bicylicheteroaryl)imidazolyl) methylheteroaryl compounds” (Allergan, Inc., priority 2007, dated 2013).

Structures are written as SMILES. A value given as a limit tells only on which side of the number the result lay.

As a reminder, the EC50 is the concentration needed to bring the measured effect to its halfway point. Consider `c1ccc(C(c2cnc[nH]2)c2cccc3cccnc23)nc1` (stereo not shown), for which, at alpha2A receptor, the “Alpha 2A intrinsic activity (efficacy)” value is 0.15 and the 50% effective concentration (EC50) is more than 10000 nM. Further, on alpha2B receptor, the “Alpha 2B intrinsic activity (efficacy)” value is recorded as 1.00 and the EC50 came to 22 nM. Besides, on alpha2C receptor, the “Alpha 2C intrinsic activity (efficacy)” value is 0.60 and the EC50 was 275 nM.
Turning to `c1cncc(C(c2cnc[nH]2)c2cccc3cccnc23)c1` (stereo not shown), at alpha2A receptor, the “Alpha 2A intrinsic activity (efficacy)” value worked out at 0.50 and the concentration giving a half-maximal response (EC50) came out at 576 nM. Further, on alpha2B receptor, the “Alpha 2B intrinsic activity (efficacy)” value is 1.29 and the concentration for a half-maximal effect (EC50) amounted to 2.15 nM. In addition, at alpha2C receptor, the “Alpha 2C intrinsic activity (efficacy)” value is recorded as 1.16 and the half-maximal effective concentration (EC50) turned out to be 123 nM.
For `c1ccc(C(c2cnc[nH]2)c2cccc3ncccc23)nc1` (stereo not shown), on alpha2A receptor, the “Alpha 2A intrinsic activity (efficacy)” value is listed as 0.13 and the half-maximal effective concentration (EC50) is more than 10000 nM. Also, on alpha2B receptor, the “Alpha 2B intrinsic activity (efficacy)” value stood at 0.45 and the half-maximal effective concentration (EC50) was found to be 348 nM. On alpha2C receptor, the “Alpha 2C intrinsic activity (efficacy)” value came out at 0.22 and the EC50 was more than 10000 nM.
Regarding `c1cncc(C(c2cnc[nH]2)c2cccc3ncccc23)c1` (stereo not shown), on alpha2A receptor, the “Alpha 2A intrinsic activity (efficacy)” value was found to be 0.12 and the 50% effective concentration (EC50) was more than 10000 nM. Moreover, on alpha2B receptor, the “Alpha 2B intrinsic activity (efficacy)” value is 0.90 and the concentration giving a half-maximal response (EC50) is 231 nM. Besides, on alpha2C receptor, the “Alpha 2C intrinsic activity (efficacy)” value is given as 0.33 and the EC50 was more than 10000 nM.
As for `c1cc(C(c2ccncc2)c2cnc[nH]2)c2cccnc2c1` (stereo not shown), the results for the concentration for a half-maximal effect (EC50) on alpha2A receptor, at alpha2B receptor and on alpha2C receptor were more than 10000 nM, 771 nM and more than 10000 nM, respectively. The “Alpha 2B intrinsic activity (efficacy)” value at alpha2B receptor stood at 0.65. On alpha2C receptor, the “Alpha 2C intrinsic activity (efficacy)” value is given as 0.18.
Regarding `c1ccc(C(c2cnc[nH]2)c2cccc3c2OCC3)nc1` (stereo not shown), the “Alpha 2A intrinsic activity (efficacy)” value on alpha2A receptor is listed as 0.23. Also, at alpha2B receptor, the “Alpha 2B intrinsic activity (efficacy)” value is 0.87 and the concentration for a half-maximal effect (EC50) was found to be 9.12 nM. At alpha2C receptor, the “Alpha 2C intrinsic activity (efficacy)” value was 0.86 and the half-maximal effective concentration (EC50) was found to be 159 nM.
Regarding `c1cncc(C(c2cnc[nH]2)c2cccc3c2OCC3)c1` (stereo not shown), at alpha2A receptor, the “Alpha 2A intrinsic activity (efficacy)” value is on record as 0.46 and the EC50 came to 430 nM. Besides, on alpha2B receptor, the “Alpha 2B intrinsic activity (efficacy)” value worked out at 1.13 and the concentration giving a half-maximal response (EC50) was 10 nM. Moreover, on alpha2C receptor, the “Alpha 2C intrinsic activity (efficacy)” value turned out to be 1.12 and the EC50 was 157 nM.
